We go through 6 compounds from patent publication US9629822B2, “Flavonoid based antiviral targets” (UNIVERSITY OF CENTRAL FLORIDA RESEARCH FOUNDATION, INC., priority 2012, dated 2017).

Molecules are shown by their SMILES. Entries after “also recorded” stand apart in the source; their conditions may differ.

For one data set, the target named is T1, US28 receptor (Human cytomegalovirus, UniProt P69332).
T1 construct: expressed in transfected cells; host or cells: HEK 293T cells, transiently transfected
Kind of data set: PathDetect trans Elk1 luciferase reporter gene assay in US28-transfected 293T HEK cells. The class given is cell-based, Human Cytomegalovirus (HCMV). Conditions: for EC50: 293T HEK cells transiently expressing US28, Elk1 reporter; for type of activity on the US28 receptor (agonist / inverse agonist / none), in words: Elk1 reporter, US28-transfected HEK cells; for Efficacy(%): maximum intrinsic activity from dose-response curve; for Efficacy(%) / Emax: negative = inverse agonism; for Emax: read-out: Efficacy(%), maximum intrinsic activity from dose-response curve. The text has this: Having generated a homologous series of chalcones and flavones, their ability to interact with the US28 receptor in human embryonic kidney (HEK) cells was investigated using an Elk-1 gene reporter assay (FIG. 2). HEK cells were transfected with either an empty vector (i.e., mock cells) or with a vector carrying US 28. These matched HEK cells provided a means to evaluate off-target effects as well as innate drug toxicity. As many of the flavonoid drugs were not water-soluble, all drug stock solutions were made in 100% dimethylsulfoxide (DMSO). The final DMSO concentration for each cell-based experiment, however, was 1% DMSO. To account for the presence of DMSO, 1% DMSO controls were run in parallel. […] values of the homologous series were also determined in Chinese hamster ovary (CHO) cells in order to assess the relative toxicities of each member of the series in a different cell line (see Table 1).
Interaction with the US28 receptor was measured by a decrease in luminescence using a firefly (Photinus pyralis) luciferase-based PathDetect Elk1 gene reporter assay (FIG. 2).^23,24 This assay assessed the modulation of US28-mediated activation of mitogen-activated protein kinase (MAPK) signaling pathways (results are shown in Table 1). […] Such compounds which reduce MAPK signaling will have direct utility in the treatment of proliferative disorders including but not limited cancer.
After transfection the US28 is expressed and activates MAPK. The MAPK phosphorylates the activator domain of the GAL4dbd/Elk1 fusion protein, and causes its dimerization. The dimer then binds to the GAL4 UAS region of the reporter gene and allows for luciferase transcription. The luciferase mRNA is then translated and the luciferase protein is detected via luminescence by the use of the Bright-Glo reagent.
(§1) The efficacy of each compound on the US28 receptor was investigated in luciferase based reporter gene assay PathDetect trans Elk1 (Agilent, Stratagene)^23 as described previously.^13 Briefly, the human embryonic kidney (HEK) 293T cells were transiently-transfected with 0.1 μg Elk1, 5 μg Luc, and 5 μg of US28 vector or empty pcDNA3 vector (mock cells). Five hours after transfection, the cells were washed with DMEM containing 1% FBS, harvested, seeded in a white half-area 96-well plate (20,000 cells/well) and incubated with the indicated concentrations of test compounds. The incubation buffer consisted of DMEM, 1% FBS, 2 mM L-glutamine, 1% penicillin-streptomycin and 1% DMSO. The cells were incubated at 37° C. in the humid atmosphere with 5% CO2 for an additional 20-24 hours. The luciferase substrate BrightGlo (Promega) was used according to the manufacturer's instruction. The luminescence intensity was acquired using microplate reader Victor3V (Perkin-Elmer). The basal luminescence of mock transfected cells was approximately 500 RLU and the basal luminescence of US28-transfected cells was 4-5-fold higher (2000-2500 RLU). As the inhibitors gave differential responses in terms of their ability to reduce US 28 mediated signaling, their relative EC50 values were determined by dosing the US-28 transfected HEK cells with increasing concentrations of each compound. In this case, the EC50 value is the concentration of the compound needed to provoke a response halfway between the compound's maximal response (change in luminescence) and the no-compound control in the same US-28 transfected cell line. A plot of relative luminescence versus log of the compound concentration provided a dose-response curve from which the % efficacy was derived via non-linear regression methods using the algorithms in PRISM 5.0 (GraphPad Software, San Diego, Calif.).

The next data set relates to CHO cells. Kind of data set: CHO cell toxicity, MTS assay, 48 h. The data set is classed as cell-based, Chinese hamster. Conditions: Cricetulus griseus, CHO, 37° C., MTS reagent, read-out: CHO 48 h IC50 value. The procedure:
In each case, the chalcone system 8 was more toxic than the corresponding ring-closed system, 9.
The CHO assay was conducted to assess the general toxicity of each flavonoid drug. Briefly, cell growth was assayed in sterile 96-well microtiter plates (Costar 3599, Corning, N.Y., USA) in the presence of each drug. Experiments were conducted in triplicate. CHO cells were plated at 10,000 cells/mL. Drug solutions were prepared in 100% DMSO and dosed so that the final DMSO concentration was <1%. For example, 1 μL of drug solution was added to the CHO cells plated in each well in 100 μL of media. Drug additions occurred after an initial overnight incubation of CHO cells in each well. After drug was added, the cells were incubated in 5% CO2 for 48 h at 37° C. The MTS reagent (Promega Cell Titer 96 Aqueous non-radioactive cell proliferation reagent) was added (20 μL) and the CHO cells were incubated for an additional 4h and then absorbance at 490 nm was measured on a BioTek Synergy MX plate reader. […] IC50 values were determined from the corresponding plot of relative absorbance at 490 nm vs drug concentration.

The next data set relates to HIV-1 BaL. As to the kind of experiment: Anti-HIV assay (luciferase, HIV-1 BaL infection). Conditions: 10 μM, Experiment 1B, 2 ng/mL p24 HIV-1 BaL; for inhibition at 10 µM: Human immunodeficiency virus 1, BAL. The data set is classed as cell-based. The procedure:
Assays were performed below in accordance with the procedures set forth in The Journal of Immunology, 2006, 176, pp. 6900-905; AIDS Research and Human Retroviruses, 2004, 20:11, pp. 1157-1665.^32,33 Cells were treated with 2 ng/mL p24 of HIV-1 BaL administered; MOI approx 0.02 (see refs 32, 33). Cells were treated with 2 ng/mL p24 of HIV-1 BaL administered; MOI approx 0.02 (see refs 32, 33).

Data set [1] in a line: TZMbI assay for cell safety (cell viability and growth, CytoTox Glo). Conditions: human, TZMbI cells, 10 μM, Experiment 1A; read-out: % decrease in viability compared to 0.1% DMSO vehicle based on viable cell luminescence. The protocol: Assays were performed below in accordance with the procedures set forth in The Journal of Immunology, 2006, 176, pp. 6900-905; AIDS Research and Human Retroviruses, 2004, 20:11, pp. 1157-1665.^32,33 TZMbI assays for cell safety were performed to identify potential anti-viral compounds. TZMbI assays for cell safety were performed to identify potential anti-viral compounds per the methods.

The test system of data set [2] is mock transfected 293T HEK cells. Kind of data set: PathDetect Elk1 luminescence in mock transfected (empty pcDNA3 vector) 293T HEK cells, off-target effect. The class given is cell-based, human. Conditions: 10 μM vs 1% DMSO control, Equation 1; for activation at 10 µM: Homo sapiens, read-out: Effect(%) on mock cells with each drug at 10 μM. The procedure: As a control, the empty pcDNA3 plasmid vector and the components of PathDetect system were also used for mock transfection of 293T HEK cells. Controls containing 1% DMSO were run in parallel. The relative luminescence results found with mock transfected 293T HEK cells treated with 10 μM drug and the untreated 1% DMSO control were compared via the following Equation 1. % Effect on mock cells=(100%×(mock cell luminescence/DMSO control luminescence))−100% Equation (1)
This equation was derived in order to assess the net effect each compound had on non-US28 containing HEK cells transfected via the same protocol. These control experiments were critical as they provided a method to address off target effects such as compound toxicity, which could give rise to false positives in the PathDetect assay.
Compounds, which had no off-target effects, gave nearly identical luminescence values in both the mock cells and the 1% DMSO control (i.e., a mock cell luminescence/DMSO control luminescence ratio of 1) and a net effect of 0% via Equation 1 (e.g., 9j: 0% in Table 1). In contrast, compounds that were stimulatory to the treated HEK cells gave higher mock cell luminescence than the DMSO control, a ratio >1, and a net positive value in Equation 1 for the % effect on mock cells (e.g., 8f: 290%). On the other hand, compounds that were intrinsically toxic gave lower luminescence in the treated mock cells than the DMSO control, a ratio below 1, and a net negative value for the % effect on mock cells (e.g., 8d: ˜42%).
as §1

The mark [3] stands for this setting: EC50 (μM), NE = no effect when tested at 10 μM of compound.
Setting [4] is: NE = no effect when tested at 10 μM of compound.

T1 sequence (P69332 whole entry): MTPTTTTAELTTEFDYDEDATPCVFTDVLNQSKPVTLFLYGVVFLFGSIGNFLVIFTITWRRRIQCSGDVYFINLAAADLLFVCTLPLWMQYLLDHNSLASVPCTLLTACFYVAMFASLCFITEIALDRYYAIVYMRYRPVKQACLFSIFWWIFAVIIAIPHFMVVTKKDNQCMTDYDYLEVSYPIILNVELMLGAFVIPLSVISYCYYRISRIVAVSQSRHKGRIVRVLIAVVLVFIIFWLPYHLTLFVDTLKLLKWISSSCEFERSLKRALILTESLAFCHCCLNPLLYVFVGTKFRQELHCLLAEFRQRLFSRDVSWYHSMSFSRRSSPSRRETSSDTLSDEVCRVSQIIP

Consider `COc1ccc(Br)cc1-c1cc(=O)c2ccccc2o1` [Compound 11d, 2-(5-Bromo-2-methoxyphenyl)-4H-chromen-4-one], for which the melting point was 161 to 164 °C. This compound also registered a half-maximal effective concentration (EC50) on US28 receptor (setting [3]) of 8.1 µM. Moreover, at US28 receptor, the “type of activity on the US28 receptor (agonist / inverse agonist / none), in words” value is “inverse agonism”; the “Efficacy(%)” value is −55%; the Emax was -55%. The concentration for half-maximal inhibition (IC50) in the data set with CHO cells was above 100 µM. Besides, in the data set with HIV-1 BaL, the “RLU (relative luciferase units)” value is 576.3 RLU and the inhibition at 10 µM was determined as 38.4%. In data set [1], the cytotoxicity at 10 μM is 23.6%.

As for `COc1ccc(Cl)cc1/C=C/C(=O)c1ccccc1O` [Compound 8h, (E)-3-(5-chloro-2-methoxyphenyl)-1-(2-hydroxyphenyl)prop-2-en-1-one], the melting point fell in the range of 81 to 82 °C. This compound yielded a concentration giving a half-maximal response (EC50) at US28 receptor (setting [3]) of 7.8 µM. For the same compound, on US28 receptor, the “Efficacy(%)” value was around 58% and the Emax is around 58%. Further, in the data set on CHO cells, the IC50 came out at 8.4 ± 0.6 µM. Besides, in the data set on HIV-1 BaL, the “RLU (relative luciferase units)” value was 33.8 RLU and the inhibition at 10 µM was determined as 96.4%. Besides, in data set [1], the cytotoxicity at 10 μM is 98.9%.

`COc1ccc(Br)cc1/C=C/C(=O)c1c(O)cccc1OC` [Compound 8f, (E)-3-(5-bromo-2-methoxyphenyl)-1-(2-hydroxy-6-methoxyphenyl)prop-2-en-1-one] displayed an EC50 at US28 receptor (setting [3]) of 6 µM. Besides, on US28 receptor, the “Efficacy(%)” value is reported as around 95% and the Emax is around 95%. In addition, the IC50 with CHO cells was 6.1 ± 0.8 µM. Further, in the data set on HIV-1 BaL, the “RLU (relative luciferase units)” value was determined as 45.9 RLU and the inhibition at 10 µM amounted to 95.1%. In addition, in data set [1], the cytotoxicity at 10 μM was found to be 91.3%. In data set [2], the “Effect(%) on mock cells with each drug at 10 μM” value was determined as 290% and the activation at 10 µM came out at 290%.

As to `COc1ccccc1-c1cc(=O)c2ccccc2o1` [Compound 11c, 2-(2-Methoxyphenyl)-4H-chromen-4-one], the 50% effective concentration (EC50) on US28 receptor (setting [4]) and at US28 receptor (setting [3]) was above 10 µM throughout. Besides, the “type of activity on the US28 receptor (agonist / inverse agonist / none), in words” value at US28 receptor was “inactive ligand”. The 50% inhibitory concentration (IC50) in the data set on CHO cells was determined as 64.8 ± 8.1 µM. In addition, the “RLU (relative luciferase units)” value with HIV-1 BaL is given as 235.6 RLU. In the data set with HIV-1 BaL, the inhibition at 10 µM amounted to 74.8%. Moreover, the cytotoxicity at 10 μM in data set [1] came to 39.5%. For the same compound, the activation at 10 µM in data set [2] was 3%.

For `COc1ccccc1/C=C/C(=O)c1ccccc1O` [Compound 8a, (E)-1-(2-Hydroxyphenyl)-3-(2-methoxyphenyl)prop-2-en-1-one], at US28 receptor, the “type of activity on the US28 receptor (agonist / inverse agonist / none), in words” value was “agonism; also recorded: agonist activity”; the “Efficacy(%)” value is given as 67%; the Emax worked out at 67%. This compound also gave a concentration giving a half-maximal response (EC50) at US28 receptor (pEC50 ± SEM) of 1.45 µM. In addition, the IC50 in the data set on CHO cells is 25.5 ± 2.7 µM. Moreover, in the data set with HIV-1 BaL, the “RLU (relative luciferase units)” value is 1218.5 RLU and the inhibition at 10 µM is -28.8%. For the same compound, the cytotoxicity at 10 μM in data set [1] was found to be 18.7%. Also, the activation at 10 µM in data set [2] was found to be 8%.

With `COc1ccc(Br)cc1C1CC(=O)c2ccccc2O1` (stereo not drawn) [Compound 13b, 2-(5-Bromo-2-methoxyphenyl)chroman-4-one], the concentration for a half-maximal effect (EC50) at US28 receptor (setting [4]) and on US28 receptor (setting [3]) was above 10 µM in each case. The “type of activity on the US28 receptor (agonist / inverse agonist / none), in words” value at US28 receptor was “did not have any significant effect”. Also, in the data set with CHO cells, the IC50 worked out at 67.9 ± 9.3 µM. Besides, the “RLU (relative luciferase units)” value in the data set on HIV-1 BaL stood at 884.5 RLU. Besides, the inhibition at 10 µM in the data set with HIV-1 BaL came to 2.8%. Also, in data set [1], the cytotoxicity at 10 μM was -9.1%. For the same compound, in data set [2], the activation at 10 µM was -5%.
